Key:
[1] = human
[2] = Comments (NB not yet translated). [column 'COMMENTAIRES' in source]; conditions: human
[3] = human, serum
[4] = human; remark: listed apart in the source
[5] = human; remark: listed apart in the source
[6] = Highest frequency of acute liver toxicity observed during clinical trials, expressed as a percentage. [column '% AIGUE' in source]; conditions: human
[7] = human; remark: listed apart in the source
[8] = human, serum; remark: listed apart in the source
[9] = human; remark: listed apart in the source
[10] = Times to onset, minimal and maximal, observed in the indexed observations. [column 'DELAI' in source]; conditions: human
[11] = human; remark: listed apart in the source
[12] = Highest frequency of moderate liver toxicity observed during clinical trials, expressed as a percentage. [column '% BIOL' in source]; conditions: human
[13] = human; remark: listed apart in the source
[14] = human, serum, 4383 h
[15] = human; remark: listed apart in the source
[16] = human; remark: listed apart in the source
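Throughout, for Hepatotoxicity (association with vascular disease): count of indexed literature references reporting vascular liver injury in humans, e.g. peliosis hepatitis, hepatic veno-occlusive disease or Budd-Chiari syndrome.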
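Throughout, for Hepatotoxicity (benign tumour): value is a count of indexed literature references citing a benign tumour confirmed by histopathology.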
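Throughout, for Hepatotoxicity (choleostasis): human cholestatic liver injury, shown by histopathology or by peak ALT or AST elevation over alkaline phosphatase ratio below 2, value counts indexed literature reports.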
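Throughout, for Hepatotoxicity (chronic liver disease): chronic liver injury confirmed by histopathology or persistently raised serum aminotransferase activity beyond 6 months, value given as the count of indexed literature references.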
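Throughout, for Hepatotoxicity (cirrhosis): value is a count of indexed literature references reporting cirrhosis confirmed by histopathology.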
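Throughout, for Hepatotoxicity (cytolytic): human cytolytic liver injury, shown by histopathology or by a ratio above 5 of peak ALT or AST elevation to alkaline phosphatase elevation, value counts indexed references.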
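Throughout, for Hepatotoxicity (granulomatous hepatitis): value is a count of indexed literature references reporting granulomatous liver disease confirmed by histopathology.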
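Throughout, for Hepatotoxicity (malignant tumour): malignant tumour confirmed by histopathology, value gives the count of indexed literature references reporting it.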
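Throughout, for Hepatotoxicity (severe hepatitis): human clinical data: severe hepatitis, meaning potentially life-threatening liver failure or clinically observed cases, the value counts how many indexed literature references report it.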
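Throughout, for Hepatotoxicity (steatosis): steatosis confirmed by histopathology, value is the count of indexed references.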

Compound | Hepatotoxicity (benign tumour) [1] | Hepatotoxicity (comment) [2] | Hepatotoxicity (moderate) [3] | Hepatotoxicity (malignant tumour) [4] | Hepatotoxicity (choleostasis) [5] | Hepatotoxicity (acute) ([6]; Liver) [%] | Hepatotoxicity (severe hepatitis) ([7]; Liver) | Hepatotoxicity (acute) [8] | Hepatotoxicity (granulomatous hepatitis) [9] | Hepatotoxicity (time to onset) [10] | Hepatotoxicity (cytolytic) [11] | Hepatotoxicity (moderate) ([12]; Liver) [%] | Hepatotoxicity (cirrhosis) [13] | Hepatotoxicity (chronic liver disease) [14] | Hepatotoxicity (association with vascular disease) [15] | Hepatotoxicity (steatosis) [16] | Hepatotoxicity (acute) [6] [%] | Hepatotoxicity (severe hepatitis) [7] | Hepatotoxicity (moderate) [12] [%]
CCCCC1=NC2(CCCC2)C(=O)N1Cc1ccc(-c2ccccc2-c2nnn[nH]2)cc1 [IRBESARTAN] | 0 | CHOLESTASE_PROLONGEE | 2 | 0 | 2 | 0 | 0 | 2 | 0 | 5 days - 4 weeks | 0 | 4.3 | 0 | 0 | 0 | 0 |  |  | 
O=C(O)c1cc(=O)c2c(OCC(O)COc3cccc4oc(C(=O)O)cc(=O)c34)cccc2o1 [CROMOLYN] | 0 | #CBP | 1 | 0 | 0 |  |  | 0 | 1 | 4 months - 10 months | 0 |  | 1 | 0 | 0 | 0 | 0 | 0 | 16.7
C[C@]12C=CC(=O)C=C1CC[C@@H]1[C@@H]2[C@@H](O)C[C@@]2(C)[C@H]1CC[C@]2(O)C(=O)CO [PREDNISOLONE] | 1 | AGGRAVATION_ANGIOMES | 0 | 0 | 0 |  |  | 2 | 0 | 6 days - 8 years | 2 |  | 0 | 0 | 0 | 2 | 0 | 2 | 0
CC(=O)[C@]1(O)Cc2c(O)c3c(c(O)c2[C@@H](O[C@H]2C[C@H](N)[C@H](O)[C@H](C)O2)C1)C(=O)c1ccccc1C3=O [IDARUBICIN] | 0 | HCF MVO REACTIVATION_HVB | 7 | 0 | 0 |  |  | 1 | 0 | 8 days - 6 months | 1 |  | 0 | 0 | 1 | 0 | 0 | 2 | 18.2
O=c1cc(Cc2ccccc2)[nH]c(=S)[nH]1 [BENZYLTHIOURACIL] | 0 | RC/CARBIMAZOLE | 1 | 0 | 1 |  |  | 1 | 0 | 1 month - 2 months | 0 |  | 0 | 0 | 0 | 0 | 0 | 0 | 0
C#CCN(C)[C@H](C)Cc1ccccc1 [SELEGILINE] | 0 | CHOLESTASE_PROLONGEE | 2 | 0 | 1 |  |  | 1 | 0 | 3 months | 0 |  | 0 | 0 | 0 | 0 | 0 | 0 | 4
Cc1c(O)cccc1C(=O)N[C@@H](CSc1ccccc1)[C@H](O)CN1C[C@H]2CCCC[C@H]2C[C@H]1C(=O)NC(C)(C)C | 0 | REACTIVATION_HVB | 4 | 0 | 0 |  |  | 3 | 0 | 47 days - 17 months | 3 |  | 0 | 0 | 0 | 0 | 7.4 | 0 | 27
CCc1cccc2c3c([nH]c12)C(CC)(CC(=O)O)OCC3 (stereo not given) [ETODOLAC] | 0 | AC_ANTI-N/-ML | 4 | 0 | 2 |  |  | 3 | 0 | 4 days - 16 weeks | 2 |  | 0 | 0 | 0 | 1 | 0 | 1 | 4
Cc1ccc(C(=O)Nc2ccc(S(=O)(=O)O)c3cc(S(=O)(=O)O)cc(S(=O)(=O)O)c23)cc1NC(=O)c1cccc(NC(=O)Nc2cccc(C(=O)Nc3cc(C(=O)Nc4ccc(S(=O)(=O)O)c5cc(S(=O)(=O)O)cc(S(=O)(=O)O)c45)ccc3C)c2)c1 [SURAMIN] | 0 | REACTIVATION_HVB | 11 | 0 | 0 |  |  | 3 | 0 | 1 week - 8 months | 1 |  | 0 | 0 | 0 | 0 | 6.3 | 1 | 63
CCC1=C(C)CN(C(=O)NCCc2ccc(S(=O)(=O)NC(=O)N[C@H]3CC[C@H](C)CC3)cc2)C1=O [GLIMEPIRIDE] | 0 | CHOLANGIOLITE | 0 | 0 | 1 |  |  | 2 | 0 | 2.5 months - 3.3 months | 1 |  | 0 | 0 | 0 | 0 | 0 | 0 | 0

Reference: ChEMBL document CHEMBL3137667, “[Drug-induced liver injury; fourteenth updated edition of the bibliographic database of liver injuries and related drugs]” (Gastroenterol Clin Biol, 2004)
